PMC4491662, “Synthesis, Biological Evaluation and Molecular Modeling of Substituted Indeno[1,2-b]indoles as Inhibitors of Human Protein Kinase CK2” (Pharmaceuticals, 2015)
Read-outs that look alike come from different tables or passages of the source.

Tests used:
NIH-3T3 = assay: Cytotoxicity WST-1 assay on NIH-3T3; format: cell-based, mouse; conditions: for EC50: Mus musculus, NIH3T3, 96 h, read-out: EC50 in µM ± SD
Description: (§1) Four cell lines of various origins were used to evaluate the cytotoxicity of our target compounds 5–7. The selected cell lines were (i) NIH-3T3, a cell line originally established from the primary mouse embryonic fibroblast cells, (ii) MEF, primary mouse embryonic fibroblasts (used at their early passages) prepared as previously described, (iii) WI-38, a human diploid cell line derived from normal embryonic lung tissue, and (iv) HEK293T, a transformed variant of the human embryonic kidney cell line HEK293. After 96 h, cytotoxicity was evaluated using the WST-1 assay. […] Seventeen compounds were evaluated on the cell lines and then compared to TBB used as a standard. […]. All cells were grown in DMEM medium supplemented with 10% fetal calf serum, glutamine (2 mM), penicillin (100 U/mL), and streptomycin (50 μg/mL) at 37 °C under a humidified 5% CO2 atmosphere (Gibco). The assays were performed in sterile 96-wells microtiter plates (Falcon). Cells were plated at 500 (NIH-3T3), 750 (WI-38) or 1000 (MEF; HEK293T) cells/100 µL/well. Drug solutions (10 μL per well) of appropriate concentration (prepared by dilution in the culture medium from 2 mM stock acetonitrile solution) were added 24 h after cell seeding. For ellagic acid and emodin, DMSO was used to prepare the stock solution. After 96 h, the cytotoxicity is evaluated using the Cell Proliferation Reagent WST-1 following the procedure described by the manufacturer (Roche Applied Science). The drugs were assayed at 10, 5, 1, 0.2 and 0.04 µM in triplicate. The vehicle was used as control. The experiments were repeated three times.

[1] = Cytotoxicity WST-1 assay, statements over the four cell lines; format: cell-based; conditions: mouse (NIH-3T3, MEF) and human (WI-38, HEK293T), WST-1, cell line not specified, read-out: EC50 (cytotoxic activity, over the cell lines)
Description: as §1

MEF = assay: Cytotoxicity WST-1 assay on MEF; format: cell-based, mouse; conditions: 96 h; for EC50: Mus musculus, read-out: EC50 in µM ± SD
Description: as §1

WI-38 = assay: Cytotoxicity WST-1 assay on WI-38; format: cell-based, human; conditions: WI-38, 96 h; for EC50: Homo sapiens, read-out: EC50 in µM ± SD
Description: as §1

HEK293T = assay: Cytotoxicity WST-1 assay on HEK293T; format: cell-based, human; conditions: 96 h; for EC50: Homo sapiens, HEK-293T, read-out: EC50 in µM ± SD
Description: as §1

human CK2 holoenzyme [2] = target: T1, human CK2 holoenzyme (Homo sapiens, UniProt P68400); assay: biochemical; conditions: for inhibition at 10 µM: average percent inhibition at 10 µM
human CK2 holoenzyme [3] = target: T1, human CK2 holoenzyme; assay: Mode of inhibition and Ki determination, CE based CK2 activity assay at varied ATP; format: biochemical; parameters: made in house; host or cells: Escherichia coli BL21(DE3), pT7-7 expression system; conditions: for IC50: IC50 at varied ATP
Description: For this purpose, reaction rates at different inhibitor concentrations were plotted in a Lineweaver-Burk diagram against the varying ATP concentration, resulting in −1/Kmapp as given by the intercepts with the abscissa in both graphs. For determining the Ki values, Kmapp were plotted against the different inhibitor concentrations as shown for 7a in Figure 6.
For this purpose, enzymatic reactions and IC50 determinations were performed as described in Section 3.3.2., but varying compositions of the assay buffer with respect to the ATP concentration were used. […] For this purpose, reaction velocities at different inhibitor concentrations were plotted in a Lineweaver-Burk diagram against the varied ATP concentrations and the corresponding −1/Kmapp were obtained by the intercepts with the abscissa. Finally the Kmapp values as obtained were plotted against the different inhibitor concentrations. By this method, the Ki values with a negative sign were given by the intercepts of the linear slope with the abscissa.

human CK2 holoenzyme [4] = target: T1, human CK2 holoenzyme; conditions: read-out: IC50 ± SD, assay buffer with 100 µM ATP

T1 sequence (P68400 whole entry): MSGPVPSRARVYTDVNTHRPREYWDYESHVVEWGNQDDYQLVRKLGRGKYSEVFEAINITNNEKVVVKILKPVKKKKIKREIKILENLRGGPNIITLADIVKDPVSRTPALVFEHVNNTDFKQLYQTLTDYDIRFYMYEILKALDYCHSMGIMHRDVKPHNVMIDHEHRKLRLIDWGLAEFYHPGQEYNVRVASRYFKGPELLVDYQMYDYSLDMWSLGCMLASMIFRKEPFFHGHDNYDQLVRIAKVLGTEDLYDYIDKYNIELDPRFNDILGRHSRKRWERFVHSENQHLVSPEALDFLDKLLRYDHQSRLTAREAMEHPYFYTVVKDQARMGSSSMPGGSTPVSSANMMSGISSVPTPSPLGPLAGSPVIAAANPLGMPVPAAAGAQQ
T1 sequence (P67870 whole entry partner): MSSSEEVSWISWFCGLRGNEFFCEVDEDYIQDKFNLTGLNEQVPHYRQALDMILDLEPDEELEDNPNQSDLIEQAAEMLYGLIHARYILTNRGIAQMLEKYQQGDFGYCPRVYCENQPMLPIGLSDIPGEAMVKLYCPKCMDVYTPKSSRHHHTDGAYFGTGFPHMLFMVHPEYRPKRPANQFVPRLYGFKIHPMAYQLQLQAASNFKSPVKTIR

CC1CC(=O)c2c3c(n(C(C)C)c2C1)-c1ccccc1C3=O (stereo not drawn) [Compound 5a, 5-Isopropyl-7-methyl-5,6,7,8-tetrahydroindeno[1,2-b]indole-9,10-dione]
EC50 (NIH-3T3): > 10 µM | EC50 at 96 h [1]: > 10 µM | EC50 (MEF): > 10 µM | EC50 (WI-38): > 10 µM | EC50 (HEK293T): > 10 µM

CC(C)C1CC(=O)c2c3c(n(C(C)C)c2C1)-c1ccccc1C3=O (stereo not drawn) [Compound 5b, 5,7-Diisopropyl-5,6,7,8-tetrahydroindeno[1,2-b]indole-9,10-dione]
EC50 (NIH-3T3): > 10 µM | EC50 at 96 h [1]: > 10 µM | IC50 (human CK2 holoenzyme [2]): 0.61 ± 0.03 µM | EC50 (MEF): 4.4 ± 0.3 µM | EC50 (WI-38): > 10 µM | EC50 (HEK293T): > 10 µM

CC(C)n1c2c(c3c1-c1ccccc1C3=O)C(=O)CC(c1ccccc1)C2 (stereo not drawn) [Compound 5c, 5-Isopropyl-7-phenyl-5,6,7,8-tetrahydroindeno[1,2-b]indole-9,10-dione]
EC50 (NIH-3T3): > 10 µM | melting point: 278 °C | inhibition at 10 µM (human CK2 holoenzyme [2]): 7% | EC50 (MEF): > 10 µM | EC50 (WI-38): > 10 µM | EC50 (HEK293T): > 10 µM

CC(C)n1c2c(c3c1-c1ccccc1C3=O)C(=O)CC(c1ccc(F)cc1)C2 (stereo not drawn) [Compound 5d, 7-(4-Fluorophenyl)-5-isopropyl-5,6,7,8-tetrahydroindeno[1,2-b]indole-9,10-dione]
melting point: 264 °C | inhibition at 10 µM (human CK2 holoenzyme [2]): 12%

CC(C)n1c2c(c3c1-c1ccccc1C3=O)C(=O)CC(c1ccco1)C2 (stereo not drawn) [Compound 5e, 7-Furan-2-yl-5-isopropyl-5,6,7,8-tetrahydroindeno[1,2-b]indole-9,10-dione]
melting point: 233.1 °C | inhibition at 10 µM (human CK2 holoenzyme [2]): 35%

CC1CCc2c(c3c(n2C(C)C)-c2ccccc2C3=O)C1=O (stereo not drawn) [Compound 5f, 5-Isopropyl-8-methyl-5,6,7,8-tetrahydroindeno[1,2-b]indole-9,10-dione]
EC50 (NIH-3T3): > 10 µM | EC50 (MEF): > 10 µM | EC50 (WI-38): > 10 µM | EC50 (HEK293T): > 10 µM

CC(C)C1CCc2c(c3c(n2C(C)C)-c2ccccc2C3=O)C1=O (stereo not drawn) [Compound 5g, 5,8-Diisopropyl-5,6,7,8-tetrahydroindeno[1,2-b]indole-9,10-dione]
EC50 (NIH-3T3): > 10 µM | melting point: 215 °C | inhibition at 10 µM (human CK2 holoenzyme [2]): 21% | EC50 (MEF): > 10 µM | EC50 (WI-38): > 10 µM | EC50 (HEK293T): > 10 µM

Cc1cc(O)c2c3c(n(C(C)C)c2c1)-c1ccccc1C3=O [Compound 6a, 9-Hydroxy-5-isopropyl-7-methyl-5H-indeno[1,2-b]indol-10-one]
EC50 (NIH-3T3): > 10 µM | EC50 (MEF): > 10 µM | EC50 (WI-38): > 10 µM | EC50 (HEK293T): > 10 µM

CC(C)c1cc(O)c2c3c(n(C(C)C)c2c1)-c1ccccc1C3=O [Compound 6b, 9-Hydroxy-5,7-diisopropyl-5H-indeno[1,2-b]indol-10-one]
EC50 (NIH-3T3): > 10 µM | melting point: 188.1 °C | EC50 (MEF): > 10 µM | EC50 (WI-38): > 10 µM | EC50 (HEK293T): > 10 µM

CC(C)n1c2c(c3c(O)cc(-c4ccccc4)cc31)C(=O)c1ccccc1-2 [Compound 6c, 9-Hydroxy-5-isopropyl-7-phenyl-5H-indeno[1,2-b]indol-10-one]
EC50 (NIH-3T3): > 10 µM | melting point: 198 °C | EC50 (MEF): > 10 µM | EC50 (WI-38): > 10 µM | EC50 (HEK293T): > 10 µM

CC(C)n1c2c(c3c(O)cc(-c4ccc(F)cc4)cc31)C(=O)c1ccccc1-2 [Compound 6d, 7-(4-Fluorophenyl)-9-hydroxy-5-isopropyl-5H-indeno[1,2-b]indol-10-one]
EC50 (NIH-3T3): > 10 µM | melting point: 208.1 °C | EC50 (MEF): > 10 µM | EC50 (WI-38): > 10 µM | EC50 (HEK293T): > 10 µM

CC(C)n1c2c(c3c(O)cc(-c4ccco4)cc31)C(=O)c1ccccc1-2 [Compound 6e, 7-Furan-2-yl-9-hydroxy-5-isopropyl-5H-indeno[1,2-b]indol-10-one]
EC50 (NIH-3T3): > 10 µM | melting point: 191 °C | EC50 (MEF): > 10 µM | EC50 (WI-38): > 10 µM | EC50 (HEK293T): > 10 µM

CC(C)c1ccc2c(c1O)c1c(n2C(C)C)-c2ccccc2C1=O [Compound 6g, 9-Hydroxy-5,8-diisopropyl-5H-indeno[1,2-b]indol-10-one]
melting point: 235 °C

Cc1cc(=O)c2c3c(=O)c4ccccc4c3n(C(C)C)c2c1=O [Compound 7a, 5-Isopropyl-7-methyl-5H-indeno[1,2-b]indole-6,9,10-trione]
EC50 in µM ± SD (NIH-3T3; NIH-3T3, 96 h, WST-1): not soluble | melting point: 235 °C | IC50 (human CK2 holoenzyme [2]): 0.43 ± 0.12 µM | inhibition at 10 µM (human CK2 holoenzyme [2]): 87% | EC50 in µM ± SD (MEF; WST-1): not soluble | Ki (human CK2 holoenzyme [3]): 0.144 ± 0.022 µM | IC50 (human CK2 holoenzyme [3]; fifth of six ATP concentrations ranging from 6 to 600 µM): 3.32 µM | IC50 (human CK2 holoenzyme [3]; fourth of six ATP concentrations ranging from 6 to 600 µM): 1.27 µM | IC50 (human CK2 holoenzyme [3]; highest of six ATP concentrations, 600 µM): 5.16 µM | IC50 (human CK2 holoenzyme [3]; lowest of six ATP concentrations, 6 µM): 0.13 µM | IC50 (human CK2 holoenzyme [3]; second of six ATP concentrations ranging from 6 to 600 µM): 0.34 µM | IC50 (human CK2 holoenzyme [3]; third of six ATP concentrations ranging from 6 to 600 µM): 0.43 µM | mode of CK2 inhibition (human CK2 holoenzyme [3]; IC50 increases linearly with ATP concentration): ATP competitive | IC50 at 600 µM ATP compared to IC50 at 6 µM ATP (human CK2 holoenzyme [3]; fold higher): 40 fold | EC50 in µM ± SD (WI-38; WST-1): not soluble | EC50 in µM ± SD (HEK293T; HEK293T, WST-1): not soluble

CC(C)c1cc(=O)c2c3c(=O)c4ccccc4c3n(C(C)C)c2c1=O [Compound 7b, 5,7-Diisopropyl-5H-indeno[1,2-b]indole-6,9,10-trione]
EC50 (NIH-3T3): > 10 µM | melting point: 230.4 °C | inhibition at 10 µM (human CK2 holoenzyme [2]): 60% | EC50 (MEF): > 10 µM | EC50 (WI-38): > 10 µM | IC50 (human CK2 holoenzyme [4]): 4.76 ± 0.29 µM | EC50 (HEK293T): > 10 µM

CC(C)n1c2c(=O)c(-c3ccccc3)cc(=O)c2c2c(=O)c3ccccc3c21 [Compound 7c, 5-Isopropyl-7-phenyl-5H-indeno[1,2-b]indole-6,9,10-trione]
EC50 (NIH-3T3): > 10 µM | melting point: 230.4 °C | EC50 at 96 h [1]: 0.4 to 8.8 µM | inhibition at 10 µM (human CK2 holoenzyme [2]): 41% | EC50 (MEF): > 10 µM | EC50 (WI-38): > 10 µM | EC50 (HEK293T): 1.6 ± 0.2 µM

CC(C)n1c2c(=O)c(-c3ccc(F)cc3)cc(=O)c2c2c(=O)c3ccccc3c21 [Compound 7d, 7-(4-Fluorophenyl)-5-isopropyl-5H-indeno[1,2-b]indole-6,9,10-trione]
EC50 (NIH-3T3): > 10 µM | melting point: 258.1 °C | EC50 at 96 h [1]: 0.4 to 8.8 µM | inhibition at 10 µM (human CK2 holoenzyme [2]): 42% | EC50 (MEF): 8.5 ± 0.4 µM | EC50 (WI-38): > 10 µM | EC50 (HEK293T): 4.9 ± 2.4 µM

CC(C)n1c2c(=O)c(-c3ccco3)cc(=O)c2c2c(=O)c3ccccc3c21 [Compound 7e, 7-Furan-2-yl-5-isopropyl-5H-indeno[1,2-b]indole-6,9,10-trione]
melting point: 216.1 °C | IC50 (human CK2 holoenzyme [2]): 1.65 ± 0.14 µM | inhibition at 10 µM (human CK2 holoenzyme [2]): 82%

CC(C)c1cc(=O)c2c(c1=O)c1c(=O)c3ccccc3c1n2C(C)C [Compound 7g, 5,8-Diisopropyl-5H-indeno[1,2-b]indole-6,9,10-trione]
EC50 (NIH-3T3): 1.5 ± 0.8 µM | melting point: 226 °C | EC50 at 96 h [1]: 0.4 to 8.8 µM | inhibition at 10 µM (human CK2 holoenzyme [2]): 45% | EC50 (MEF): > 10 µM | EC50 (WI-38): 2.5 ± 0.4 µM | EC50 (HEK293T): 0.4 ± 0.02 µM

Brc1c(Br)c(Br)c2[nH]nnc2c1Br [TBB, reference compound]
EC50 (NIH-3T3): > 10 µM | EC50 (MEF): > 10 µM | EC50 (WI-38): > 10 µM | EC50 (HEK293T): > 10 µM

O=c1oc2c(O)c(O)cc3c(=O)oc4c(O)c(O)cc1c4c23 [ellagic acid, reference compound]
EC50 (NIH-3T3): > 10 µM | inhibition at 10 µM (human CK2 holoenzyme [2]): 95% | EC50 (MEF): > 10 µM | EC50 (WI-38): > 10 µM | IC50 (human CK2 holoenzyme [4]): 0.04 ± 0.007 µM | EC50 (HEK293T): > 10 µM

Cc1cc(O)c2c(c1)C(=O)c1cc(O)cc(O)c1C2=O [emodin, reference compound]
EC50 (NIH-3T3): > 10 µM | EC50 (MEF): > 10 µM | EC50 (WI-38): > 10 µM | EC50 (HEK293T): > 10 µM
